≈ marks a conversion by molar mass, not a printed value. Where a name gives a salt, the structure may show the parent alone. Read-outs that look alike come from different tables or passages of the source.
Columns and labels:
[1] = test system: S. aureus wild type strain (ATCC 25923); assay: Antibiotic assay (resazurin, Example 1), S. aureus wild type; format: cell-based, Staphylococcus aureus; conditions: Staphylococcus aureus
Protocol: (§1) Bacteria Strain. […] The MRSA were obtained as further described below.
(§2) Antibiotic agents. Cyprofloxacin and erythromycin were provided by Sigma-Aldrich. Gentamicin sulfate and vancomycin hydrochloride were provided by Calbiochem.
MRSA. Ten (10) strains of MRSA obtained as described above were tested along with an S. aureus wild type (WT) strain (ATCC25923).

S. aureus = assay: Antibiotic assay (resazurin, Example 1), S. aureus strains of Table 3; format: cell-based, Staphylococcus aureus
From the text: as §1, §2

Streptococcus pneumoniae = assay: Antibiotic assay (resazurin, Example 1), Streptococcus pneumoniae; format: cell-based; conditions: for IC50 / MIC: Streptococcus pneumoniae
Protocol: as §1, §2
(§3) Five additional strains were tested: Streptococcus pneumoniae, Streptococcus agalactiae, Streptococcus pyogenes, Enterococcus faecalis and Corynebacterium jeikeium.

Enterococcus faecalis = assay: Antibiotic assay (resazurin, Example 1), Enterococcus faecalis; format: cell-based; conditions: for IC50 / MIC: Enterococcus faecalis
Protocol: as §1, §2, §3

Corynebacterium jeikeium = assay: Antibiotic assay (resazurin, Example 1), Corynebacterium jeikeium; format: cell-based; conditions: Corynebacterium jeikeium; for MIC: read-out: Minimum Inhibitory Concentration (MIC)
Protocol: as §1, §2, §3

Streptococcus pyogenes = assay: Antibiotic assay (resazurin, Example 1), Streptococcus pyogenes; format: cell-based; conditions: Streptococcus pyogenes
Protocol: as §1, §2, §3

Streptococcus agalactiae = assay: Antibiotic assay (resazurin, Example 1), Streptococcus agalactiae; format: cell-based; conditions: for IC50 / MIC: Streptococcus agalactiae
Protocol: as §1, §2, §3

S. epidermidis = assay: Antibiotic assay (resazurin, Example 1), S. epidermidis strains; conditions: Staphylococcus epidermidis
[2] = read-out: Minimum Inhibitory Concentration (MIC), S. epidermidis 14069
[3] = read-out: Minimum Inhibitory Concentration (MIC), S. epidermidis 14085
[4] = read-out: Minimum Inhibitory Concentration (MIC), S. epidermidis 14093
[5] = read-out: Minimum Inhibitory Concentration (MIC), S. epidermidis 14134
[6] = read-out: Minimum Inhibitory Concentration (MIC), S. epidermidis 14143

Work on `O=C(O)c1cn(C2CC2)c2cc(N3CCNCC3)c(F)cc2c1=O` [Ciprofloxacin, reference compound] yielded an IC50 ([1]; ATCC25923, S. aureus WT ATCC 25923, read-out: IC50) of 400 ± 200 nM, an MIC ([1]; ATCC25923, S. aureus WT ATCC 25923, read-out: Minimum Inhibitory Concentration (MIC)) of 47.9 µM (≈ 15.9 µg/mL) and an IC50 (S. aureus; S. aureus 14108, read-out: IC50) of less than 1560 nM. It also gave an IC50 (S. aureus; S. aureus 14118, read-out: IC50) of less than 1560 nM, an IC50 (S. aureus; S. aureus 14154, read-out: IC50) of less than 1560 nM and an IC50 (S. aureus; Staphylococcus aureus, S. aureus 14094, read-out: IC50) of less than 1560 nM. It also gave an MIC (S. aureus; Staphylococcus aureus, S. aureus 14094, read-out: Minimum Inhibitory Concentration (MIC)) of 87.6 µM (≈ 29 µg/mL), an MIC (S. aureus; Staphylococcus aureus, S. aureus 14108, read-out: Minimum Inhibitory Concentration (MIC)) of 66.8 µM (≈ 22.1 µg/mL) and an MIC (S. aureus; Staphylococcus aureus, S. aureus 14118, read-out: Minimum Inhibitory Concentration (MIC)) of 65.1 µM (≈ 21.6 µg/mL). For the same molecule, the MIC (S. aureus; Staphylococcus aureus, S. aureus 14154, read-out: Minimum Inhibitory Concentration (MIC)) was 25.1 µM (≈ 8.32 µg/mL), the IC50 (Streptococcus pneumoniae; Strep. pneumoniae 14070, read-out: IC50) was greater than 200000 nM and the MIC (Streptococcus pneumoniae; Strep. pneumoniae 14070, read-out: Minimum Inhibitory Concentration (MIC)) was greater than 200 µM. For the same molecule, the IC50 (Streptococcus pneumoniae; Strep. pneumoniae 14112, read-out: IC50) was 63000 ± 6000 nM, the MIC (Streptococcus pneumoniae; Strep. pneumoniae 14112, read-out: Minimum Inhibitory Concentration (MIC)) was 200 µM (≈ 66.3 µg/mL) and the IC50 (Streptococcus pneumoniae; Strep. pneumoniae 14138, read-out: IC50) was greater than 200000 nM. It also gave an MIC (Streptococcus pneumoniae; Strep. pneumoniae 14138, read-out: Minimum Inhibitory Concentration (MIC)) greater than 200 µM, an IC50 (Streptococcus pneumoniae; Strep. pneumoniae 14144, read-out: IC50) greater than 200000 nM and an MIC (Streptococcus pneumoniae; Strep. pneumoniae 14144, read-out: Minimum Inhibitory Concentration (MIC)) greater than 200 µM. For the same molecule, the IC50 (Streptococcus pneumoniae; Strep. pneumoniae 14148, read-out: IC50) was 56000 ± 6000 nM, the MIC (Streptococcus pneumoniae; Strep. pneumoniae 14148, read-out: Minimum Inhibitory Concentration (MIC)) was 200 µM (≈ 66.3 µg/mL) and the “activity against Streptococcus pneumoniae strain 14144” value (Streptococcus pneumoniae; in words) was “not active”. For the same molecule, the “Minimum Inhibitory Concentration (MIC)” value (Enterococcus faecalis; Ent. Faecalis 14115) was “(>200) μM”, the IC50 (Enterococcus faecalis; Ent. Faecalis 14078, read-out: IC50) was 15000 ± 2000 nM and the MIC (Enterococcus faecalis; Ent. Faecalis 14078, read-out: Minimum Inhibitory Concentration (MIC)) was greater than 200 µM. For the same molecule, the IC50 (Enterococcus faecalis; Ent. Faecalis 14115, read-out: IC50) was greater than 200000 nM, the “activity against Enterococcus faecalis 14115 strain” value (Enterococcus faecalis; in words) was “not active” and the IC50 (Corynebacterium jeikeium; Coryne. jeikeium 14139, read-out: IC50) was 1420 ± 70 nM. It also gave an MIC (Corynebacterium jeikeium; Coryne. jeikeium 14139) of 16.4 µM (≈ 5.43 µg/mL), an IC50 (Streptococcus pyogenes; Strep. pyogenes 14149, read-out: IC50) of 43000 ± 2000 nM and an MIC (Streptococcus pyogenes; Strep. pyogenes 14149, read-out: Minimum Inhibitory Concentration (MIC)) of 169 µM (≈ 56 µg/mL). The IC50 (Streptococcus pyogenes; Strep. pyogenes 14152, read-out: IC50) was 600 ± 1000 nM, the MIC (Streptococcus pyogenes; Strep. pyogenes 14152, read-out: Minimum Inhibitory Concentration (MIC)) was 37.4 µM (≈ 12.4 µg/mL) and the “Minimum Inhibitory Concentration (MIC)” value (Streptococcus agalactiae; Strep. agalactiae 14151) was “(>200) μM”. The “Minimum Inhibitory Concentration (MIC)” value (Streptococcus agalactiae; Strep. agalactiae 14153) was “(>200) μM”, the IC50 (Streptococcus agalactiae; Strep. agalactiae 14150, read-out: IC50) was 138000 ± 10000 nM and the MIC (Streptococcus agalactiae; Strep. agalactiae 14150, read-out: Minimum Inhibitory Concentration (MIC)) was greater than 200 µM. For the same molecule, the IC50 (Streptococcus agalactiae; Strep. agalactiae 14151, read-out: IC50) was greater than 200000 nM, the IC50 (Streptococcus agalactiae; Strep. agalactiae 14153, read-out: IC50) was 190000 ± 10000 nM and the IC50 (S. epidermidis; S. epidermidis 14069) was 31000 ± 2000 nM. The IC50 (S. epidermidis; S. epidermidis 14085) was 26300 ± 800 nM, the IC50 (S. epidermidis; S. epidermidis 14093) was less than 1560 nM and the IC50 (S. epidermidis; S. epidermidis 14134) was 44000 ± 1000 nM. It also gave an IC50 (S. epidermidis; S. epidermidis 14143) of 80000 ± 7000 nM, an MIC (S. epidermidis; [2]) greater than 200 µM and an MIC (S. epidermidis; [3]) greater than 200 µM. For the same molecule, the MIC (S. epidermidis; [4]) was 77.1 µM (≈ 25.5 µg/mL), the MIC (S. epidermidis; [5]) was greater than 200 µM and the MIC (S. epidermidis; [6]) was greater than 200 µM.
With `CN[C@H](CC(C)C)C(=O)N[C@H]1C(=O)N[C@@H](CC(N)=O)C(=O)N[C@H]2C(=O)N[C@H]3C(=O)N[C@H](C(=O)N[C@H](C(=O)O)c4cc(O)cc(O)c4-c4cc3ccc4O)[C@H](O)c3ccc(c(Cl)c3)Oc3cc2cc(c3O[C@@H]2O[C@H](CO)[C@@H](O)[C@H](O)[C@H]2O[C@H]2C[C@](C)(N)[C@H](O)[C@H](C)O2)Oc2ccc(cc2Cl)[C@H]1O` [Vancomycin, vancomycin hydrochloride, reference compound] the IC50 ([1]; ATCC25923) was 400 ± 200 nM, the MIC ([1]; ATCC25923, read-out: Minimum Inhibitory Concentration (MIC)) was 1.44 µM and the IC50 (S. aureus; Staphylococcus aureus, S. aureus 14094) was 280 ± 40 nM. The IC50 (S. aureus; Staphylococcus aureus, S. aureus 14108) was 270 ± 40 nM, the IC50 (S. aureus; Staphylococcus aureus, S. aureus 14118) was 240 ± 30 nM and the IC50 (S. aureus; Staphylococcus aureus, S. aureus 14154) was 280 ± 50 nM. For the same molecule, the MIC (S. aureus; Staphylococcus aureus, read-out: Minimum Inhibitory Concentration (MIC), S. aureus 14094) was 0.41 µM, the MIC (S. aureus; Staphylococcus aureus, read-out: Minimum Inhibitory Concentration (MIC), S. aureus 14108) was 0.44 µM and the MIC (S. aureus; Staphylococcus aureus, read-out: Minimum Inhibitory Concentration (MIC), S. aureus 14118) was 0.38 µM. For the same molecule, the MIC (S. aureus; Staphylococcus aureus, read-out: Minimum Inhibitory Concentration (MIC), S. aureus 14154) was 0.45 µM, the IC50 (Streptococcus pneumoniae; Strep. pneumoniae 14070) was 90 ± 40 nM and the IC50 (Streptococcus pneumoniae; Strep. pneumoniae 14112) was 94 ± 8 nM. For the same molecule, the IC50 (Streptococcus pneumoniae; Strep. pneumoniae 14138) was 130 ± 80 nM, the IC50 (Streptococcus pneumoniae; Strep. pneumoniae 14144) was greater than 10000 nM and the IC50 (Streptococcus pneumoniae; Strep. pneumoniae 14148) was 84 ± 6 nM. The MIC (Streptococcus pneumoniae; read-out: Minimum Inhibitory Concentration (MIC), Strep. pneumoniae 14070) was 8.37 µM, the MIC (Streptococcus pneumoniae; read-out: Minimum Inhibitory Concentration (MIC), Strep. pneumoniae 14112) was 0.16 µM and the MIC (Streptococcus pneumoniae; read-out: Minimum Inhibitory Concentration (MIC), Strep. pneumoniae 14138) was greater than 10 µM. For the same molecule, the MIC (Streptococcus pneumoniae; read-out: Minimum Inhibitory Concentration (MIC), Strep. pneumoniae 14144) was greater than 10 µM, the MIC (Streptococcus pneumoniae; read-out: Minimum Inhibitory Concentration (MIC), Strep. pneumoniae 14148) was 0.2 µM and the “activity against Streptococcus pneumoniae strain 14138” value (Streptococcus pneumoniae; in words) was “had an activity”. The IC50 (Enterococcus faecalis; Ent. Faecalis 14078) was 700 ± 100 nM, the IC50 (Enterococcus faecalis; Ent. Faecalis 14115) was greater than 10000 nM and the MIC (Enterococcus faecalis; read-out: Minimum Inhibitory Concentration (MIC), Ent. Faecalis 14078) was 5.59 µM. It also gave an MIC (Enterococcus faecalis; read-out: Minimum Inhibitory Concentration (MIC), Ent. Faecalis 14115) greater than 10 µM, an IC50 (Corynebacterium jeikeium) of 220 ± 30 nM and an MIC (Corynebacterium jeikeium) of 0.35 µM. It also gave an IC50 (Streptococcus pyogenes; Strep. pyogenes 14149) of 117 ± 9 nM, an IC50 (Streptococcus pyogenes; Strep. pyogenes 14152) of 80 ± 20 nM and an MIC (Streptococcus pyogenes; read-out: Minimum Inhibitory Concentration (MIC), Strep. pyogenes 14149) of 0.17 µM. For the same molecule, the MIC (Streptococcus pyogenes; read-out: Minimum Inhibitory Concentration (MIC), Strep. pyogenes 14152) was 3.25 µM, the IC50 (Streptococcus agalactiae; Strep. agalactiae 14150) was 250 ± 60 nM and the IC50 (Streptococcus agalactiae; Strep. agalactiae 14151) was 330 ± 60 nM. It also gave an IC50 (Streptococcus agalactiae; Strep. agalactiae 14153) of 240 ± 40 nM, an MIC (Streptococcus agalactiae; read-out: Minimum Inhibitory Concentration (MIC), Strep. agalactiae 14150) of 0.35 µM and an MIC (Streptococcus agalactiae; read-out: Minimum Inhibitory Concentration (MIC), Strep. agalactiae 14151) of 4.03 µM. For the same molecule, the MIC (Streptococcus agalactiae; read-out: Minimum Inhibitory Concentration (MIC), Strep. agalactiae 14153) was 0.36 µM, the IC50 (S. epidermidis; S. epidermidis 14069) was 800 ± 100 nM and the IC50 (S. epidermidis; S. epidermidis 14085) was 800 ± 100 nM. It also gave an IC50 (S. epidermidis; S. epidermidis 14093) of 1300 ± 200 nM, an IC50 (S. epidermidis; S. epidermidis 14134) of 1700 ± 200 nM and an IC50 (S. epidermidis; S. epidermidis 14143) of 2700 ± 100 nM. The MIC (S. epidermidis; [2]) was 6.58 µM, the MIC (S. epidermidis; [3]) was 4 µM and the MIC (S. epidermidis; [4]) was 8.38 µM. The MIC (S. epidermidis; [5]) was 11.4 µM and the MIC (S. epidermidis; [6]) was greater than 12.5 µM.
